Test results: ChEMBL document CHEMBL1782053, “Differences in CYP3A4 catalyzed bioactivation of 5-aminooxindole and 5-aminobenzsultam scaffolds in proline-rich tyrosine kinase 2 (PYK2) inhibitors: retrospective analysis by CYP3A4 molecular docking, quantum chemical calculations and glutathione adduct detection using linear ion trap/orbitrap …” (Bioorg Med Chem Lett, 2009)

Legend:
[1] = Dissociation constant, pKa of the compound; format: physicochemical
[2] = test system: Liver microsomes; assay: Metabolic stability in human liver microsome assessed as level of GSH adduct at 1 to 10 uM by ion trap/orbitrap MS analysis; format: ADME
[3] = test system: Liver microsomes; assay: Metabolic stability in human liver microsome assessed as level of GSH adduct at 20 uM by ion trap/orbitrap MS analysis; format: ADME

| Structure (SMILES) | pKa [1] | Stability [2] | Stability [3] |
| --- | --- | --- | --- |
| CN(C)[C@@H]1CCC[C@H]1Nc1nc(Nc2ccc3c(c2)CS(=O)(=O)N3)ncc1C(F)(F)F | 9.26 | Stable | Unstable |
| CN(C)[C@@H]1CCC[C@H]1Nc1nc(Nc2ccc3c(c2)CC(=O)N3)ncc1C(F)(F)F | 13.7 |  |  |
